pIC50: −log10 of the molar value. Starred links: 1 amine or outer side, 2 acyl side, 3 side chain; linkers in the order of their positions; H or OH if unused. Positions of bridges follow the written chain, without caps; N, C: chain ends. Non-standard residues stand in square brackets, D forms with d. Residues, ends and D or L forms follow the SMILES beside them. *: point of attachment. hPhe(3,5-F2-4-CF3) = N[C@@H](CCc1cc(F)c(C(F)(F)F)c(F)c1)C(=O)O; hPhe(3-Cl-4-CF3) = N[C@@H](CCc1ccc(C(F)(F)F)c(Cl)c1)C(=O)O; NMePhe(4-CF3) = CN[C@@H](Cc1ccc(C(F)(F)F)cc1)C(=O)O; Thiomorpholino(1,1-dioxo) = O=S1(=O)CCN(*)CC1; 3Oxa8azabicyclo(3.2.1)octane = C1CC2COCC1N2*; NEtPhe(4-Me) = CCN[C@@H](Cc1ccc(C)cc1)C(=O)O; NMeAbu(4,4,4-F3) = CN[C@@H](CC(F)(F)F)C(=O)O; NMePhe(4-Cl) = CN[C@@H](Cc1ccc(Cl)cc1)C(=O)O; X51 = O=C([C@H](Cc1cc(F)cc(I)c1)N[*:1])[*:2]; X55 = C[C@@](Cc1cccc(I)c1)(N[*:1])C(=O)[*:2]; X77 = O=C([C@H](Cc1cc(Br)ccc1Cl)N[*:1])[*:2]; NMePhe(4-Me) = CN[C@@H](Cc1ccc(C)cc1)C(=O)O; X18 = Cc1ccc(Br)cc1C[C@H](N[*:1])C(=O)[*:2]; NMePhe(4-F) = CN[C@@H](Cc1ccc(F)cc1)C(=O)O; X83 = O=C([C@H](Cc1cncc(Br)c1)N[*:1])[*:2]; X20 = O=C([C@H](Cc1ccc(Br)s1)N[*:1])[*:2]; NMeGly(cPent) = CN[C@H](C(=O)O)C1CCCC1; Phe(3-I) = N[C@@H](Cc1cccc(I)c1)C(=O)O; Pro(4,4-F2) = O=C(O)[C@@H]1CC(F)(F)CN1; NMeY = CN[C@@H](Cc1ccc(O)cc1)C(=O)O; NMeCha = CN[C@@H](CC1CCCCC1)C(=O)O; NMeChg = CN[C@H](C(=O)O)C1CCCCC1; NMeI = CC[C@H](C)[C@H](NC)C(=O)O; NMeD = CN[C@@H](CC(=O)O)C(=O)O; NMeL = CN[C@@H](CC(C)C)C(=O)O; Oxazolidin(3-yl) = C1CN(*)CO1; NMeNva = CCC[C@H](NC)C(=O)O; NMeV = CN[C@H](C(=O)O)C(C)C; d(β3hA) = C[C@@H](N)CC(=O)O; NMeAbu = CC[C@H](NC)C(=O)O; NMeA = CN[C@@H](C)C(=O)O; NMeAib = CNC(C)(C)C(=O)O; Nle = CCCC[C@H](N)C(=O)O; Piperidide = C1CCN(*)CC1; Pra = C#CC[C@H](N)C(=O)O; Pyrrolidide = C1CCN(*)C1; Ac5c = NC1(C(=O)O)CCCC1; Aze = O=C(O)[C@@H]1CCN1; CF3 = FC(F)(F)*; Sar = CNCC(=O)O
target: T1, Kras and SOS1 (biotin-tagged human Kras loaded with GDP, His-tagged human SOS1) (Homo sapiens, UniProt P01116, G12D); assay: Protein-protein interaction inhibition between Kras and SOS1 (KrasGl2D-SOS PPI) using AlphaScreen; format: binding; details: AlphaScreen; biotin-tagged human Kras loaded with GDP, His-tagged human SOS1; read-out: KRAS G12D-SOS PPI IC50
T1 construct: made in house; host or cells: E. coli (stated for Kras only)
Procedure, shortened: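 Binding between SOS1 and Kras is detected as bead-proximity luminescence: illuminate Ni-conjugated donors (680 nm), collect 520-620 nm emission from streptavidin-conjugated acceptors; Kras carries biotin and GDP loaded after purification, SOS1 carries a His tag.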

T1 sequence (P01116 1-188 isoform P01116-2 G12D): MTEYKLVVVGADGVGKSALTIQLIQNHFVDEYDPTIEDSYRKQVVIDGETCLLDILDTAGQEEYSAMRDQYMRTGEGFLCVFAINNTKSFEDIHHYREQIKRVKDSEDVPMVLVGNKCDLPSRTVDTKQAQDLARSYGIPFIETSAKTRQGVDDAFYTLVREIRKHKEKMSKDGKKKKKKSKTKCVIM

Compound | pIC50
CCCC[C@@H]1NC(=O)[C@H](Cc2cc(Br)ccc2C)NC(=O)CN(C)C(=O)[C@H](Cc2ccc(OC)cc2)N(C)C(=O)[C@@H]2CCN2C(=O)[C@H](C)N(C)C(=O)[C@H]([C@@H](C)CC)NC(=O)[C@H](CC)N(C)C(=O)C[C@@H](C(=O)N2CCCCC2)N(C)C(=O)[C@H](CC(C)C)NC(=O)C(C)(C)N(C)C1=O [Compound 1195] ([NMeAbu]I[NMeA][Aze][NMeY](Me)[Sar][X18][Nle][NMeAib]L[NMeD]-Piperidide; lactam N-11) | 7.42
CC[C@H](C)[C@@H]1NC(=O)[C@H](CC(F)(F)F)N(C)C(=O)C[C@@H](C(=O)N2CCCC2)N(C)C(=O)[C@H](C2CCCCC2)N(C)C(=O)C2(CCCC2)NC(=O)[C@@H]2CC(F)(F)CN2C(=O)[C@H](CCc2ccc(C(F)(F)F)c(Cl)c2)NC(=O)CN(C)C(=O)[C@H](Cc2ccc(C(F)(F)F)cc2)N(C)C(=O)CN(C)C(=O)CN(C)C1=O [Compound 1196] ([NMeAbu(4,4,4-F3)]I[Sar][Sar][NMePhe(4-CF3)][Sar][hPhe(3-Cl-4-CF3)][Pro(4,4-F2)][Ac5c][NMeChg][NMeD]-Pyrrolidide; lactam N-11) | 9.32
CCCC[C@@H]1NC(=O)[C@](C)(Cc2cccc(I)c2)NC(=O)CN(C)C(=O)[C@H](Cc2ccc(Cl)cc2)N(C)C(=O)CN(C)C(=O)CN(C)C(=O)[C@H]([C@@H](C)CC)NC(=O)[C@H](CC(C)C)N(C)C(=O)C[C@@H](C(=O)N2CCCCC2)N(C)C(=O)[C@H](CC(C)C)NC(=O)C(C)(C)N(C)C1=O [Compound 1202] ([NMeL]I[Sar][Sar][NMePhe(4-Cl)][Sar][X55][Nle][NMeAib]L[NMeD]-Piperidide; lactam N-11) | 6.62
CCCC[C@@H]1NC(=O)[C@H](Cc2cc(Br)ccc2Cl)NC(=O)CN(C)C(=O)[C@H](Cc2ccc(OC)cc2)N(C)C(=O)[C@@H]2CCN2C(=O)[C@H](C)N(C)C(=O)[C@H]([C@@H](C)CC)NC(=O)[C@H](CC)N(C)C(=O)C[C@@H](C(=O)N2CCCCC2)N(C)C(=O)[C@H](CC(C)C)NC(=O)C(C)(C)N(C)C1=O [Compound 1212] ([NMeAbu]I[NMeA][Aze][NMeY](Me)[Sar][X77][Nle][NMeAib]L[NMeD]-Piperidide; lactam N-11) | 6.92
CC[C@H](C)[C@@H]1NC(=O)[C@H](CC(C)C)N(C)C(=O)C[C@@H](C(=O)N2C3CCC2COC3)N(C)C(=O)[C@H](C2CCCC2)N(C)C(=O)C2(CCCC2)NC(=O)[C@@H]2CCCN2C(=O)[C@H](CCc2cc(F)c(C(F)(F)F)c(F)c2)NC(=O)CN(C)C(=O)[C@H](Cc2ccc(C)cc2)N(CC)C(=O)[C@@H]2CCN2C(=O)[C@H](C)N(C)C1=O [Compound 1215] ([NMeL]I[NMeA][Aze][NEtPhe(4-Me)][Sar][hPhe(3,5-F2-4-CF3)]P[Ac5c][NMeGly(cPent)][NMeD]-{3Oxa8azabicyclo(3.2.1)octane}; lactam N-11) | 8.74
CCCC[C@@H]1NC(=O)[C@H](Cc2ccc(Br)s2)NC(=O)CN(C)C(=O)[C@H](Cc2ccc(Cl)cc2)N(C)C(=O)CN(C)C(=O)CN(C)C(=O)[C@H]([C@@H](C)CC)NC(=O)[C@H](CC(C)C)N(C)C(=O)C[C@@H](C(=O)N2CCCCC2)N(C)C(=O)[C@H](CC(C)C)NC(=O)C(C)(C)N(C)C1=O [Compound 1216] ([NMeL]I[Sar][Sar][NMePhe(4-Cl)][Sar][X20][Nle][NMeAib]L[NMeD]-Piperidide; lactam N-11) | 6.92
C#CC[C@@H]1NC(=O)[C@H](Cc2cccc(I)c2)NC(=O)CN(C)C(=O)[C@H](Cc2ccc(OC(F)(F)F)cc2)N(C)C(=O)CN(C)C(=O)CN(C)C(=O)[C@H]([C@@H](C)CC)NC(=O)[C@H](CC(C)C)N(C)C(=O)C[C@@H](C(=O)N2CCCCC2)N(C)C(=O)[C@H](CC(C)C)NC(=O)C(C)(C)N(C)C1=O [Compound 1219] ([NMeL]I[Sar][Sar][NMeY](CF3)[Sar][Phe(3-I)][Pra][NMeAib]L[NMeD]-Piperidide; lactam N-11) | 7.80
CCCC[C@@H]1NC(=O)[C@H](Cc2cc(F)cc(I)c2)NC(=O)CN(C)C(=O)[C@H](Cc2ccc(OC)cc2)N(C)C(=O)[C@@H]2CCN2C(=O)[C@H](C)N(C)C(=O)[C@H]([C@@H](C)CC)NC(=O)[C@H](CC)N(C)C(=O)C[C@@H](C(=O)N2CCCCC2)N(C)C(=O)[C@H](CC(C)C)NC(=O)C(C)(C)N(C)C1=O [Compound 1226] ([NMeAbu]I[NMeA][Aze][NMeY](Me)[Sar][X51][Nle][NMeAib]L[NMeD]-Piperidide; lactam N-11) | 7.82
C#CC[C@@H]1NC(=O)[C@H](Cc2cccc(I)c2)NC(=O)CN(C)C(=O)[C@H](Cc2ccc(F)cc2)N(C)C(=O)[C@@H]2CCN2C(=O)[C@H](C)N(C)C(=O)[C@H]([C@@H](C)CC)NC(=O)[C@H](CC(C)C)N(C)C(=O)C[C@@H](C(=O)N2CCCCC2)N(C)C(=O)[C@H](CC(C)C)NC(=O)C(C)(C)N(C)C1=O [Compound 1230] ([NMeL]I[NMeA][Aze][NMePhe(4-F)][Sar][Phe(3-I)][Pra][NMeAib]L[NMeD]-Piperidide; lactam N-11) | 7.01
CCC[C@H]1C(=O)N[C@@H]([C@@H](C)CC)C(=O)N(C)CC(=O)N(C)CC(=O)N(C)[C@@H](CC2CCCCC2)C(=O)N(C)CC(=O)N[C@@H](CCc2ccc(C(F)(F)F)c(Cl)c2)C(=O)N2CC(F)(F)C[C@H]2C(=O)NC2(CCCC2)C(=O)N(C)[C@@H](C2CCCCC2)C(=O)N(C)[C@H](C(=O)N2CCCC2)CC(=O)N1C [Compound 1232] ([NMeNva]I[Sar][Sar][NMeCha][Sar][hPhe(3-Cl-4-CF3)][Pro(4,4-F2)][Ac5c][NMeChg][NMeD]-Pyrrolidide; lactam N-11) | 9.33
CC[C@H](C)[C@@H]1NC(=O)[C@H](CC(C)C)N(C)C(=O)C[C@@H](C(=O)N2CCS(=O)(=O)CC2)N(C)C(=O)[C@H](C(C)C)N(C)C(=O)C2(CCCC2)NC(=O)[C@@H]2CCCN2C(=O)[C@H](CCc2ccc(C(F)(F)F)c(Cl)c2)NC(=O)CN(C)C(=O)[C@H](CC2CCCCC2)N(C)C(=O)[C@@H]2CCN2C(=O)[C@H](C)N(C)C1=O [Compound 1238] ([NMeL]I[NMeA][Aze][NMeCha][Sar][hPhe(3-Cl-4-CF3)]P[Ac5c][NMeV][NMeD]-{Thiomorpholino(1,1-dioxo)}; lactam N-11) | 8.00
CC[C@H](C)[C@@H]1NC(=O)[C@H](CC(C)C)N(C)C(=O)C[C@@H](C)NC(=O)[C@H](C)N(C)C(=O)C2(CCCC2)NC(=O)[C@@H]2CCCN2C(=O)[C@H](CCc2ccc(C(F)(F)F)c(Cl)c2)NC(=O)CN(C)C(=O)[C@H](Cc2ccc(C)cc2)N(C)C(=O)[C@@H]2CCN2C(=O)[C@H](C)N(C)C1=O [Compound 1239] (cyclo([Ac5c][NMeA][d(β3hA)][NMeL]I[NMeA][Aze][NMePhe(4-Me)][Sar][hPhe(3-Cl-4-CF3)]P)) | 6.74
CCCC[C@@H]1NC(=O)[C@H](Cc2cncc(Br)c2)NC(=O)CN(C)C(=O)[C@H](Cc2ccc(OC)cc2)N(C)C(=O)[C@@H]2CCN2C(=O)[C@H](C)N(C)C(=O)[C@H]([C@@H](C)CC)NC(=O)[C@H](CC)N(C)C(=O)C[C@@H](C(=O)N2CCCCC2)N(C)C(=O)[C@H](CC(C)C)NC(=O)C(C)(C)N(C)C1=O [Compound 1240] ([NMeAbu]I[NMeA][Aze][NMeY](Me)[Sar][X83][Nle][NMeAib]L[NMeD]-Piperidide; lactam N-11) | 6.54
CC[C@H](C)[C@@H]1NC(=O)[C@H](CC(C)C)N(C)C(=O)C[C@@H](C(=O)N2CCCCC2)N(C)C(=O)[C@H](C(C)C)N(C)C(=O)C2(CCCC2)NC(=O)[C@H](C)N(C)C(=O)[C@H](CCc2ccc(C(F)(F)F)c(Cl)c2)NC(=O)CN(C)C(=O)[C@H](CC2CCCCC2)N(C)C(=O)[C@@H]2CCN2C(=O)[C@H](C)N(C)C1=O [Compound 1243] ([NMeL]I[NMeA][Aze][NMeCha][Sar][hPhe(3-Cl-4-CF3)][NMeA][Ac5c][NMeV][NMeD]-Piperidide; lactam N-11) | 7.57
CC[C@H](C)[C@@H]1NC(=O)[C@H](CC(F)(F)F)N(C)C(=O)C[C@@H](C(=O)N2CCCC2)N(C)C(=O)[C@H](C2CCCCC2)N(C)C(=O)C2(CCCC2)NC(=O)[C@@H]2CCCN2C(=O)[C@H](CCc2cc(F)c(C(F)(F)F)c(F)c2)NC(=O)CN(C)C(=O)[C@H](Cc2ccc(C(F)(F)F)cc2)N(C)C(=O)CN(C)C(=O)CN(C)C1=O [Compound 1244] ([NMeAbu(4,4,4-F3)]I[Sar][Sar][NMePhe(4-CF3)][Sar][hPhe(3,5-F2-4-CF3)]P[Ac5c][NMeChg][NMeD]-Pyrrolidide; lactam N-11) | 9.20
CC[C@H](C)[C@@H]1NC(=O)[C@H](CC(F)(F)F)N(C)C(=O)C[C@@H](C(=O)N2CCCC2)N(C)C(=O)[C@H](C2CCCCC2)N(C)C(=O)C2(CCCC2)NC(=O)[C@@H]2CC(F)(F)CN2C(=O)[C@H](CCc2ccc(C(F)(F)F)c(Cl)c2)NC(=O)CN(C)C(=O)[C@H](Cc2ccc(C)cc2)N(C)C(=O)CN(C)C(=O)CN(C)C1=O [Compound 1245] ([NMeAbu(4,4,4-F3)]I[Sar][Sar][NMePhe(4-Me)][Sar][hPhe(3-Cl-4-CF3)][Pro(4,4-F2)][Ac5c][NMeChg][NMeD]-Pyrrolidide; lactam N-11) | 9.27
CC[C@H](C)[C@@H]1NC(=O)[C@H](CC(C)C)N(C)C(=O)C[C@@H](C(=O)N2CCOC2)NC(=O)[C@H]([C@@H](C)CC)N(C)C(=O)C2(CCCC2)NC(=O)[C@@H]2CCCN2C(=O)[C@H](CCc2ccc(C(F)(F)F)c(Cl)c2)NC(=O)CN(C)C(=O)[C@H](CC2CCCCC2)N(C)C(=O)CN(C)C(=O)CN(C)C1=O [Compound 1247] ([NMeL]I[Sar][Sar][NMeCha][Sar][hPhe(3-Cl-4-CF3)]P[Ac5c][NMeI]D-{Oxazolidin(3-yl)}; lactam N-11) | 8.32

Source: US12371454B2, “Cyclic peptide compound having Kras inhibitory action” (priority 2019, dated 2025)
